Key:
Assay in all cases: relative viability (nuclei count vs DMSO), 5 days (fraction); higher = more cells survive
[1] = compound: Nc1ccn([C@@H]2O[C@H](CO)[C@@H](O)C2(F)F)c(=O)n1 [Gemcitabine] + CS(=O)(=O)N1CCN(Cc2cc3nc(-c4cccc5[nH]ncc45)nc(N4CCOCC4)c3s2)CC1 [Pictilisib] (partner 1 µM)
How it was run: (§1)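 Relative viability was taken as the ratio of nuclei in treated wells to nuclei in vehicle wells. Lung cancer cell lines in 1536-well plates received compounds by pin tool one day after seeding, either one drug alone or a fixed anchor-drug dose plus five library-drug doses (not always all listed) in √10 steps. Nuclei were counted on 4× images after 5 days of treatment, and values are medians of duplicate plates.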

[2] = compound: Nc1ccn([C@@H]2O[C@H](CO)[C@@H](O)C2(F)F)c(=O)n1 [Gemcitabine] + CC(=O)c1c(C)c2cnc(Nc3ccc(N4CCNCC4)cn3)nc2n(C2CCCC2)c1=O [Palbociclib] (partner 0.5 µM)
How it was run: as §1

[3] = compound: Nc1ccn([C@@H]2O[C@H](CO)[C@@H](O)C2(F)F)c(=O)n1 [Gemcitabine] + COc1cc2c(Oc3ccc(NC(=O)C4(C(=O)Nc5ccc(F)cc5)CC4)cc3F)ccnc2cc1OCCCN1CCOCC1 [Foretinib] (partner 0.25 µM)
How it was run: as §1

[4] = compound: Nc1ccn([C@@H]2O[C@H](CO)[C@@H](O)C2(F)F)c(=O)n1 [Gemcitabine] + CC(C)C[C@H](NC(=O)[C@H](Cc1ccccc1)NC(=O)c1cnccn1)B(O)O [Bortezomib] (partner 0.002 µM)
How it was run: as §1

Cell Line	relative viability ([1]; first compound 0.001 µM)	relative viability ([1]; first compound 0.003162 µM)	relative viability ([1]; first compound 0.01 µM)	relative viability ([1]; first compound 0.03162 µM)	relative viability ([1]; first compound 0.1 µM)	relative viability ([2]; first compound 0.001 µM)	relative viability ([2]; first compound 0.003162 µM)	relative viability ([2]; first compound 0.01 µM)	relative viability ([2]; first compound 0.03162 µM)	relative viability ([2]; first compound 0.1 µM)	relative viability ([3]; first compound 0.001 µM)	relative viability ([3]; first compound 0.003162 µM)	relative viability ([3]; first compound 0.01 µM)	relative viability ([3]; first compound 0.03162 µM)	relative viability ([3]; first compound 0.1 µM)	relative viability ([4]; first compound 0.001 µM)	relative viability ([4]; first compound 0.003162 µM)	relative viability ([4]; first compound 0.01 µM)	relative viability ([4]; first compound 0.03162 µM)	relative viability ([4]; first compound 0.1 µM)
201T	0.692	0.71	0.686	0.496	0.321	0.341	0.363	0.317	0.359	0.323	1.06	0.994	0.914	0.217	0.177	1.03	1.09	1.12	0.952	0.401
A-427	0.748	0.673	0.438	0.155	0.0739	0.552	0.492	0.421	0.326	0.235	1.09	0.948	0.598	0.181	0.155	0.99	0.996	0.68	0.225	0.139
ABC-1	0.907	0.832	0.599	0.38	0.278	–	0.547	0.626	0.353	0.347	0.886	–	1.06	0.312	0.17	0.344	0.313	0.372	0.233	0.239
BEN	0.547	0.477	0.258	0.128	0.119	0.448	0.38	0.364	0.291	0.273	0.77	0.575	0.303	0.112	0.119	0.79	0.669	0.198	0.118	0.113
CAL-12T	0.289	0.393	0.359	0.267	0.242	0.628	0.48	0.292	0.161	0.16	1.11	1.03	0.982	0.707	0.182	1.01	0.822	0.521	0.267	0.254
COR-L23	0.686	0.942	0.39	0.148	0.0795	0.277	0.214	0.119	0.112	0.0964	0.972	0.898	0.556	0.123	0.0959	1.04	0.949	0.66	0.114	0.101
COR-L 105	0.43	0.377	0.364	0.27	0.269	0.398	0.4	0.366	0.347	0.326	1.39	0.884	1.01	0.371	0.27	0.867	0.851	0.479	0.23	0.201
Calu-6	0.994	0.705	0.223	0.162	0.108	–	–	–	–	–	0.847	0.566	0.403	0.0993	0.0677	1.04	0.57	0.26	0.167	0.159
ChaGo-K-1	0.664	0.388	0.363	0.198	0.239	0.99	0.803	0.31	0.186	0.167	0.901	0.815	0.428	0.213	0.191	1	0.424	0.341	0.23	0.303
EKVX	0.424	0.336	0.226	0.153	0.108	0.412	0.284	0.237	0.168	0.154	0.788	0.457	0.173	0.246	0.113	0.995	1.07	0.461	0.18	0.142
EMC-BAC-2	0.615	0.58	0.402	0.196	0.184	0.529	0.515	0.46	0.256	0.25	1.03	1.03	0.885	0.201	0.201	1.09	1.1	1.08	0.161	0.169
EPLC-272H	0.286	0.115	0.304	0.232	0.143	0.384	0.323	0.275	0.244	0.21	0.636	0.815	0.416	0.075	0.0466	0.87	0.786	0.419	0.358	0.121
H3255	0.524	0.299	0.334	0.194	0.137	0.348	0.347	0.286	0.285	0.264	1.04	0.666	0.782	0.273	0.229	0.848	0.547	0.576	0.19	0.199
HARA	0.299	0.483	0.532	0.261	0.0888	0.234	0.283	0.219	0.179	0.139	0.965	0.894	0.853	0.119	0.0735	1.15	1.22	1.04	0.695	0.1
HCC-15	0.763	0.804	0.762	0.323	0.0914	0.811	0.722	0.634	0.327	0.0961	1.12	1.07	1.01	0.152	0.0815	1.06	0.986	0.931	0.915	0.255
HCC-44	0.58	0.568	0.593	0.392	0.234	0.934	0.908	0.938	0.717	0.447	–	–	–	–	–	0.895	0.874	0.701	0.393	0.131
HCC-78	0.198	0.247	0.201	0.148	0.132	0.495	0.446	0.388	0.302	0.294	0.502	0.44	0.416	0.267	0.241	0.593	0.314	0.335	0.302	0.193

— the supplement of paper PMC10307832
